Experimental findings from PubChem BioAssay (NCI) are described below.

Test systems include HOP-92 NSCLC; SK-MEL-28 melanoma; OVCAR-4 ovarian; SK-MEL-5 melanoma; MOLT-4 leukemia; M14 melanoma; SK-OV-3 ovarian; HCC-2998 colon; HOP-62 NSCLC; ACHN renal.
Holding throughout (assay): NCI tumour cell line growth inhibition, 48 h

Where “and” joins values, the source holds several entries; their conditions need not be identical. Identical values can stand only once.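 Five concentrations, 48 hours, 96-well plates. The concentration for 50% growth inhibition is given as GI50. At the TGI there is no net growth.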 Where only a bound is given, the exact number is not on record here.

In the case of `CCCCCCNC(=O)Oc1ccc(/C(=C(\C)c2ccccc2)c2ccc(OCCN(CC)CC)cc2)cc1`, the GI50 was 2.59 µM in the experiment on HOP-92 NSCLC; 3.12 µM with SK-MEL-28 melanoma; 5.46 µM with OVCAR-4 ovarian; 3.01 µM in the experiment with SK-MEL-5 melanoma; 1.78 µM in the experiment with MOLT-4 leukemia; 1.11 µM in the experiment with M14 melanoma. The GI50 with SK-OV-3 ovarian was 8.33 µM; in the experiment on HCC-2998 colon, 2.33 µM; with HOP-62 NSCLC, 6.51 µM; in the experiment with ACHN renal it was 5.99 µM. The TGI with HOP-92 NSCLC was 9.16 µM; in the experiment on SK-MEL-28 melanoma, 9.3 µM; with OVCAR-4 ovarian, 11.9 µM; in the experiment on SK-MEL-5 melanoma, 9.26 µM; in the experiment with MOLT-4 leukemia, 7.79 µM; with M14 melanoma, 2.38 µM. For the same molecule, the TGI came out at 15.2 µM with SK-OV-3 ovarian, 8.16 µM in the experiment with HCC-2998 colon, 13.4 µM with HOP-62 NSCLC and 12.2 µM in the experiment on ACHN renal.

For the molecule `COc1cc(C2c3cc4c(cc3[C@@H](Nc3ccc(N)cc3)C3COC(=O)[C@H]23)OCO4)cc(OC)c1O` (stereo not given in full), the GI50 in the experiment on HOP-92 NSCLC was 0.495 µM; with SK-MEL-5 melanoma, 0.701 µM; in the experiment on MOLT-4 leukemia it was 0.175 µM and 0.0292 µM; with M14 melanoma, 0.652 µM; in the experiment on SK-OV-3 ovarian, 0.805 µM; in the experiment on ACHN renal it was 0.345 µM. For the same molecule, the TGI is 33.9 µM in the experiment with SK-MEL-28 melanoma; 41.6 µM in the experiment on OVCAR-4 ovarian; 7.09 µM in the experiment on SK-MEL-5 melanoma; 0.8 µM and 0.825 µM in the experiment on MOLT-4 leukemia; 18.6 µM with M14 melanoma; 17.3 µM in the experiment with SK-OV-3 ovarian. Further, the TGI with HCC-2998 colon was 9.07 µM; in the experiment with HOP-62 NSCLC it was 0.865 µM and 2.5 µM; in the experiment with ACHN renal it was 6.05 µM.

As for `c1ccc2nc(OCCN3CC3)ccc2c1`, the GI50 is 1.9 µM with HOP-92 NSCLC; 14.5 µM in the experiment on SK-MEL-28 melanoma; 10.3 µM in the experiment on OVCAR-4 ovarian; 12.9 µM in the experiment on SK-MEL-5 melanoma; 4.04 µM in the experiment on MOLT-4 leukemia; 8.15 µM with M14 melanoma. Also, the GI50 in the experiment on SK-OV-3 ovarian is 16.8 µM; in the experiment on HCC-2998 colon it was 2.31 µM; with HOP-62 NSCLC, 15.2 µM; with ACHN renal, 15 µM. Further, the TGI in the experiment with HOP-92 NSCLC was determined as 9.44 µM; in the experiment on SK-MEL-28 melanoma, 29.2 µM; with OVCAR-4 ovarian it was 25.3 µM; in the experiment with SK-MEL-5 melanoma, 26.8 µM; with MOLT-4 leukemia it was 59 µM; in the experiment on M14 melanoma, 23.9 µM. Further, the TGI with SK-OV-3 ovarian amounted to 33.6 µM; in the experiment on HCC-2998 colon, 5.53 µM; in the experiment with HOP-62 NSCLC, 34.1 µM; in the experiment with ACHN renal it was 35.9 µM.

Turning to `COc1cc(-c2nn(-c3ccc(NC(=O)c4cc(Cl)cc(Cl)c4)cc3)cc2-c2ccncc2)ccc1Cl`, the GI50 in the experiment with HOP-92 NSCLC is more than 100 µM; in the experiment on SK-MEL-28 melanoma it was more than 100 µM; in the experiment on OVCAR-4 ovarian, more than 100 µM; in the experiment on SK-MEL-5 melanoma, 12 µM; in the experiment on MOLT-4 leukemia it was 4.83 µM; with M14 melanoma it was 7.39 µM. Further, the GI50 in the experiment on SK-OV-3 ovarian was more than 100 µM; in the experiment with HCC-2998 colon it was 5.88 µM; in the experiment with HOP-62 NSCLC it was 32 µM; in the experiment with ACHN renal, more than 100 µM. Besides, the TGI with HOP-92 NSCLC, in the experiment on SK-MEL-28 melanoma, in the experiment on OVCAR-4 ovarian, in the experiment with SK-MEL-5 melanoma, with MOLT-4 leukemia and in the experiment with M14 melanoma was more than 100 µM throughout. Also, the TGI in the experiment with SK-OV-3 ovarian, in the experiment on HCC-2998 colon, in the experiment on HOP-62 NSCLC and in the experiment with ACHN renal was more than 100 µM throughout.

On to `COC(=O)C1CC(C(=O)OC)c2nc3cc(C)c(C)cc3nc21` (stereo not given), for which the TGI in the experiment on HOP-92 NSCLC, in the experiment on SK-MEL-28 melanoma, with OVCAR-4 ovarian, with SK-MEL-5 melanoma, in the experiment on MOLT-4 leukemia and with M14 melanoma was more than 100 µM each time. Moreover, the TGI in the experiment with SK-OV-3 ovarian, in the experiment on HCC-2998 colon, in the experiment with HOP-62 NSCLC and in the experiment with ACHN renal was more than 100 µM throughout.

Regarding `O=C(Nc1ccc(I)cc1F)c1cc(I)ccc1O`, the GI50 with HOP-92 NSCLC was 0.179 µM; in the experiment on SK-MEL-28 melanoma, 0.435 µM; in the experiment on OVCAR-4 ovarian, 0.798 µM; in the experiment with SK-MEL-5 melanoma it was 0.285 µM; in the experiment with MOLT-4 leukemia, 0.965 µM; in the experiment with M14 melanoma, 0.773 µM. Further, the GI50 with SK-OV-3 ovarian was 2.56 µM; in the experiment with HCC-2998 colon, 2.63 µM; in the experiment on HOP-62 NSCLC, 0.815 µM; with ACHN renal, 1.69 µM. The TGI was 0.777 µM in the experiment with HOP-92 NSCLC; 2.84 µM in the experiment on SK-MEL-28 melanoma; more than 100 µM in the experiment on OVCAR-4 ovarian; 0.807 µM in the experiment on SK-MEL-5 melanoma; 3.5 µM in the experiment on MOLT-4 leukemia; 3.75 µM in the experiment on M14 melanoma. Besides, the TGI in the experiment on SK-OV-3 ovarian was more than 100 µM; in the experiment on HCC-2998 colon it was 15.1 µM; with HOP-62 NSCLC, 3.4 µM; in the experiment with ACHN renal, more than 100 µM.

Regarding `CN(C)CCNc1nc2ccccc2c2c(=O)c3ccccc3sc12`, the GI50 is 1.68 µM in the experiment on HOP-92 NSCLC; 2.08 µM in the experiment on SK-MEL-28 melanoma; 2.85 µM with OVCAR-4 ovarian; 1.58 µM with SK-MEL-5 melanoma; 2.22 µM in the experiment with MOLT-4 leukemia; 1.86 µM in the experiment on M14 melanoma. In addition, the GI50 with SK-OV-3 ovarian was 4.68 µM; in the experiment with HCC-2998 colon, 1.74 µM; in the experiment with HOP-62 NSCLC it was 1.94 µM; with ACHN renal, 1.61 µM. Further, the TGI was found to be 6.73 µM in the experiment on HOP-92 NSCLC; 3.98 µM in the experiment with SK-MEL-28 melanoma; 11.1 µM in the experiment on OVCAR-4 ovarian; 3 µM in the experiment with SK-MEL-5 melanoma; 6.1 µM in the experiment with MOLT-4 leukemia; 3.62 µM with M14 melanoma. The TGI amounted to 19 µM with SK-OV-3 ovarian, 3.46 µM in the experiment on HCC-2998 colon, 4.29 µM in the experiment on HOP-62 NSCLC and 4.3 µM in the experiment with ACHN renal.

With `COc1ccc(/C=N/N=C(\[O-])c2ccncc2)cc1F.COc1ccc(/C=N\N=C(/[O-])c2ccncc2)cc1F.[Cu+2]`, the GI50 in the experiment on HOP-92 NSCLC is 19.1 µM; in the experiment on SK-MEL-28 melanoma, 37.9 µM; in the experiment on OVCAR-4 ovarian, 18.5 µM; in the experiment on SK-MEL-5 melanoma, 26 µM; in the experiment on MOLT-4 leukemia it was 26 µM; in the experiment on M14 melanoma, 47.2 µM. Further, the GI50 in the experiment with SK-OV-3 ovarian was 11.8 µM; in the experiment with HCC-2998 colon, 32.9 µM; in the experiment on HOP-62 NSCLC it was 20.3 µM; in the experiment on ACHN renal, 39.5 µM. Also, the TGI is 38.6 µM in the experiment with HOP-92 NSCLC; more than 100 µM in the experiment with SK-MEL-28 melanoma; 34.5 µM with OVCAR-4 ovarian; 80.4 µM with SK-MEL-5 melanoma; more than 100 µM in the experiment with MOLT-4 leukemia; more than 100 µM with M14 melanoma. Moreover, the TGI in the experiment on SK-OV-3 ovarian is 24.1 µM; with HCC-2998 colon it was more than 100 µM; in the experiment on HOP-62 NSCLC it was 41 µM; in the experiment on ACHN renal it was more than 100 µM.
